From patent publication US20040224907A1, “Compositions and methods for reversal of drug resistance” (priority 2001, published 2004)

Key:
[1] = tested on: Pgp; test: Western blotting of Pgp protein levels in ADX cells (antibody C219); type: cell-based, Chinese hamster; conditions: 10 μM (FIG. 4)
Description: (§1) Protein levels were monitored by Western blotting, using monoclonal antibodies specific to Pgp (e.g., C219).

[2] = tested on: Pgp; test: Western blotting of Pgp protein levels in BE(2)-C cells (antibody C219); type: cell-based; conditions: 10 μM (FIG. 3)
Protocol: FIG. 3. depicts Western Blot showing time-dependent reduction of Pgp expression in BE(2)—C cells following 10 μM (+)pentazocine treatment.
as §1

[3] = tested on: Pgp mRNA; test: RT-PCR with 32P-ATP of Pgp mRNA levels in BE(2)-C neuroblastoma cell line; type: cell-based; parameters: reduction in Pgp mRNA levels, dose dependence: dose or concentration left out as unconfirmed; conditions: BE(2)-C cells
Protocol: (§2) RT-PCR was performed and [^32P]ATP was incorporated into the PCR reaction. Radioactivity was measured following gel separation of PCR product.
as §2
Tests were performed in a BE(2)—C neuroblastoma cell line. This cell line was used to test the ability of (+)pentazocine to reduce levels of Pgp mRNA and corresponding protein expression in a dose-dependent manner. Pgp levels were tested at the mRNA level by reverse-transcription polymerase chain reaction (RT-PCR) in the presence of ^32P-ATP. Incorporation of the radiolabeled nucleotide was measured following electrophoresis of the PCR product.

[4] = tested on: mdr-1 gene; conditions: human neuroblastoma cells; cited from earlier work

Row | SMILES | time of maximal decrease of Pgp protein levels [1] [h] | time of maximal decrease of Pgp protein levels [2] [h] | decrease in Pgp mRNA ([3]; 1 μM) | time of maximal reduction in Pgp mRNA levels post-treatment ([3]; 10 μM (FIG. 1)) [h] | reduction in Pgp mRNA levels, dose dependence ([3]; concentrations (FIG. 2)) | effect on expression of the mdr-1 gene [4]
1 | CC(C)=CCN1CCC2(C)c3cc(O)ccc3CC1C2C (single isomer, unassigned; (+)) [(+)pentazocine] | 12 to 18 | 12 to 18 | two-fold decrease | 12 to 18 | dose-dependent | –
2 | Br.Br.CN(CCc1ccc(Cl)c(Cl)c1)[C@H]1CCCC[C@H]1N1CCCC1 [BD 737] | – | – | – | – | – | no significant effect
